# pIC50: −log10 of the molar value.
# Key:
# [1] = tested on: hemolysis of rabbit erythrocytes; assay: Rabbit erythrocyte hemolysis assay to evaluate inhibitory activity on the bypass pathway; type: cell-based; details: Oryctolagus cuniculus, 0.5 h, 48% NHP or 26.4% NHS, 37° C. 30 min, absorbance 415 nm
# Description: 2. Rabbit Erythrocyte Hemolysis Assay to Evaluate the Inhibitory Activity of Compounds on the Bypass Pathway
# Normal Human Serum, NHS (collected from healthy people), Normal Human Plasma, NHP (Shanghai Yuduo), 96-well ELISA plate (Jet Biofil), Japanese big-eared white rabbit (Wuhan WQJX), Alsever's solution (Procell), centrifuge (Thermo, PICO17), thermostatic shaker (Shanghai Fuma), destaining shaker (Beijing Liuyi), cell counter (Invitrogen, Counter Countess II) (GVB^o, EGTA, MgCl2, NaOH, microplate reader, microplate thermostatic shaker, and pipette are equivalent to those in the experiment 1).
# 48% NHP: 100% NHP was diluted to 48% with buffer;
# 26.4% NPS: 100% NHS was diluted to 26.4% with buffer;
# rabbit erythrocyte suspension: blood was taken from rabbit ear marginal vein, anticoagulated with Alsever's solution at a ratio of 1:1, stored in portions at 4° C., and could be stored for 4 weeks. Before use, the suspension was centrifuged at 500 g for 5 min to discard the Alsever's solution, washed three times with an equal volume of buffer and centrifuged at 500 g for 5 min, and finally the density was adjusted to 6×10^8 cells/mL with buffer.
# In the 96-well ELISA plate, the experimental group was added with 50 μL of 48% NHP or 26.4% NHS and 50 μL of compound solution; the positive control group was added with 50 μL of 48% NHP or 26.4% NHS and 50 μL of buffer containing 0.2% DMSO; the blank control group was added with 50 μL of 48% inactivated NHP or 26.4% inactivated NHS and 0.2% DMSO buffer; the H2O group was added with 100 μL of double-distilled water; incubated at 37° C. for 15 min; 20 μL of rabbit erythrocyte suspension was added to each well and incubated on a shaker at 37° C. for 30 min; centrifuged at 2000 g (3380 rpm) for 5 min, and […] of supernatant was transferred to a new 96-well ELISA plate, and the absorbance was detected at 415 nm.
# The PC group represents 100% hemolysis, and the NC group represents 0% hemolysis.
# IC50: half-maximal inhibitory concentration. Data were collected to calculate the log value of hemolysis percentage versus compound concentration, and IC50 values were calculated using GraphPad Prism software.
# [2] = biological target: T1, complement factor D (Homo sapiens, UniProt P00746); assay: Complement factor D inhibitory activity (C3b method) in vitro screening; product Bb detected by ELISA; type: biochemical; details: factor D + factor B + factor C3b, 37° C., Bb by MicroVue Bb Plus ELISA
# T1 construct: purchased Complement tech
# Description: 1. Complement Factor D Inhibitory Activity (C3b Method) In Vitro Screening Experiment
# V-bottom plate (AXYGEN), DMSO (Sigma), MicroVue Bb Plus ELISA kit (Quidel), complement factor C3b (abbreviated as factor C3b, Complement tech), complement factor B (abbreviated as factor B, Complement tech), complement factor D (abbreviated as factor D, Complement tech), EDTA (MACKLIN), GVB^o (Complement tech), EGTA (Aladdin), MgCl2 (Aladdin), NaOH (Sinopharm), microplate reader (Molecular Devices, SpectraMax i3x), microplate thermostatic shaker (Thermo, MB100-2A), pipette (Gilson)
# 0.1 M Mg-EGTA: 3.8 g of EGTA, 0.9521 g of MgCl2, and 0.7 g of NaOH were weighed, and the pH was adjusted to 7.5 with NaOH. Distilled water was added to make up to 100 mL, and the mixture was filtered with a […] sterile needle filter, stored in portions at 4° C.
# Buffer: 0.1 M Mg-EGTA solution was diluted 10-fold to 10 mM with GVB^o buffer; • factor B working solution: 1 mg/mL factor B solution (10.75 μM) was diluted 6.7-fold to 1.6 μM with buffer; • factor C3b working solution: 1 mg/mL factor C3b solution (5.68 μM) was diluted 5-fold to […] with buffer; • factor D working solution: 0.1 mg/mL factor D solution (4.17 μM) was diluted 1303-fold to 3.2 nM with buffer.
# Note: a. The above dilution multiples are for reference only and are adjusted according to the true concentration labeled on the reagent; • b. factor B: 93 KDa, factor D: 24 KDa, factor C3b: 176 KDa.
# Stop solution: An appropriate amount of EDTA powder was weighed, dissolved in a certain amount of GVB^o buffer, and the pH was adjusted to 7.5 with NaOH. The mixture was stirred until clear and prepared into a 10 mM solution.
# Compound stock solution: 40 mM compound solution was diluted with DMSO into 1 mM stock solution, and the 1 mM stock solution was diluted 3-fold with DMSO at 8 points to prepare compound stock solutions of various concentrations.
# Compound working solution: diluted 250-fold with buffer to obtain compound solutions of various concentrations.
# In the V-bottom plate, the experimental group was added with 10 μL of factor D solution and 10 μL of compound solution; the positive control group was added with 10 μL of factor D solution and buffer containing 0.4% DMSO; the blank control group was added with […] containing 0.2% DMSO; incubated at 37° C. for 15 min; the factor B working solution and the factor C3b working solution were mixed homogeneously at a ratio of 1:1; 20 µL of the mixture was added to each well and incubated at 37° C. for 30 min; the reaction was stopped by adding 40 μL of stop solution; the production of product Bb was detected by MicroVue Bb Plus ELISA kit.
# 1.4.1 The required wells of the ELISA plate were taken out and allowed to return to room temperature, and the remaining ones were repackaged and stored at 4° C.;
# 1.4.2 the wells were washed twice with 300 μL of 1× wash buffer, and incubated for 1 min at 25° C. for the first wash;
# 1.4.3 samples were diluted 8-fold with complement specimen diluent, and 100 μL of sample was added to each well and incubated at 25° C. for 30 min;
# 1.4.4 the liquid in the wells was discarded, and the wells were washed 5 times with 300 μL of 1× wash buffer, and incubated at room temperature for 1 min for the first wash;
# 1.4.5 50 μL of Bb Plus Conjugate was added to each well and incubated at 25° C. for 30 min;
# 1.4.6 the liquid in the wells was discarded, and the wells were washed 5 times with 300 μL of 1× wash buffer, and incubated at room temperature for 1 min for the first wash;
# 1.4.7 100 μL of […] (Substrate Solution) was added to each well and incubated at 25° C. for 15 min;
# 1.4.8 100 μL of stop solution was added to each well, and the absorbance was detected at 450 nm within 30 min.
# 1.5.1 Inhibition rate of each drug concentration:
# The PC group represents 0% inhibition rate, and the NC group represents 100% inhibition rate. […]
# [3] = In vivo pharmacokinetic study (PK assay on SD rats); details: Sprague-Dawley, rat, plasma; for AUC(0-t) / Cmax / half-life: 1 mg/kg
# Procedure: 3. In Vivo Pharmacokinetic Study of the Compounds of the Present Disclosure
# After adaptive domestication, SPF grade SD rats were administered 1 or 3 mg/kg the compounds of the present disclosure by single gavage and tail vein injection, respectively. Plasma was collected at specific time points after administration, and the concentration of compounds in plasma was detected by LC-MS/MS (AB SCIEX Qtrap4500). The PK parameters of each compound were calculated using software to reflect the pharmacokinetic properties of the compounds of the present disclosure in vivo in animals.
# T1 sequence (P00746 26-253): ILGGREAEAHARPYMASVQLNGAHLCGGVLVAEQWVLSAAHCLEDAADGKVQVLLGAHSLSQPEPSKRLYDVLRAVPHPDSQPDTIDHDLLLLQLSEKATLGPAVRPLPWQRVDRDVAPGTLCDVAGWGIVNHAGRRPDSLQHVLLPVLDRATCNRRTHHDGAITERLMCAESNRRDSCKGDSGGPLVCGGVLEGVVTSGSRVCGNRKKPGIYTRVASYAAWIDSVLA
SMILES,pIC50 [1],other results
"NCc1cccc(-c2cc(COc3ccccc3CC(=O)O)cc(N3CCC4(CCOCC4)CC3)c2)c1 [Compound 029, 2-(2-((3′-(aminomethyl)-5-(3-oxa-9-azaspiro[5.5]undecan-9-yl)-[1,1′-biphenyl]-3-yl)methoxy)phenyl)acetic acid]",8.00,pIC50 [2]: 8.22
CC(N)c1cccc(-c2cc(COc3ccccc3CC(=O)O)cc(N3CCC4(CC3)COC4)c2)c1 (centres unmarked) [Compound 042],7.30,–
"NCc1cccc(-c2cc(COc3ccccc3CC(=O)O)cc(N3CC4(CCCC4)C3)c2)c1 [Compound 017, 2-(2-((3′-(aminomethyl)-5-(2-azaspiro[3.4]octan-2-yl)-[1,1′-biphenyl]-3-yl)methoxy)phenyl)acetic acid]",7.19,pIC50 [2]: 8.22
"CC(N)c1cccc(-c2cc(COc3ccccc3CC(=O)O)cc(N3CCC4(CCCOC4)CC3)c2)c1F (centres unmarked) [Compound 056, 2-(2-((3′-(1-aminoethyl)-2′-fluoro-5-(2-oxa-9-azaspiro[5.5]undecan-9-yl)-[1,1′-biphenyl]-3-yl)methoxy)phenyl)acetic acid]",7.15,–
"NCc1cccc(-c2cc(COc3ccccc3CC(=O)O)cc(N3CCC4(COC4)C3)c2)c1 [Compound 015, 2-(2-((3′-(aminomethyl)-5-(2-oxa-6-azaspiro[3.4]octan-6-yl)-[1,1′-biphenyl]-3-yl)methoxy)phenyl)acetic acid]",8.15,–
CC(N)c1cccc(-c2cc(COc3ccccc3CC(=O)O)cc(N3CCOC4(CC4)C3)c2)c1 (centres unmarked) [Compound 035],6.74,–
"CC(N)c1cccc(-c2cc(COc3ccccc3CC(=O)O)cc(N3CCC4(CCO4)C3)c2)c1 (centres unmarked) [Compound 041, 2-(2-((3′-(1-aminoethyl)-5-(1-oxa-6-azaspiro[3.4]octan-6-yl)-[1,1′-biphenyl]-3-yl)methoxy)phenyl)acetic acid]",6.82,–
CC(N)c1cccc(-c2cc(COc3ccccc3CC(=O)O)cc(N3CCC4(CCCOC4)CC3)c2)c1 (centres unmarked) [Compound 039],6.90,–
"NCc1cccc(-c2cc(COc3ccc(F)cc3CC(=O)O)cc(N3CCC4(CC3)CC4)c2)c1 [Compound 010, 2-(2-((3′-(aminomethyl)-5-(6-azaspiro[2.5]octan-6-yl)-[1,1′-biphenyl]-3-yl)methoxy)-5-fluorophenyl)acetic acid]",6.80,"AUC(0-t) ([3]; IV): 5660 ng·h/mL; Cmax ([3]; IV): 1840 ng/mL; half-life ([3]; IV): 3.31 h; bioavailability ([3]; PO 1 mg/kg vs IV 1 mg/kg, read-out: Oral bioavailability F): 30.9%; AUC(0-t) ([3]; PO (3% DMSO + 4% Tween)): 1750 ng·h/mL; Cmax ([3]; PO (3% DMSO + 4% Tween)): 349 ng/mL; half-life ([3]; PO (3% DMSO + 4% Tween)): 3.18 h"
"NCc1cccc(-c2cc(COc3ccccc3CC(=O)O)cc(N3CCC4(CCC4)CC3)c2)c1 [Compound 002, 2-(2-((3′-(aminomethyl)-5-(7-azaspiro[3.5]nonan-7-yl)-[1,1′-biphenyl]-3-yl)methoxy)phenyl)acetic acid]",7.01,–
"NCc1cccc(-c2cc(COc3ccccc3CC(=O)O)cc(N3CC4(CCCCC4)C3)c2)c1 [Compound 005, 2-(2-((3′-(aminomethyl)-5-(2-azaspiro[3.5]nonan-2-yl)-[1,1′-biphenyl]-3-yl)methoxy)phenyl)acetic acid]",7.14,–
"CC(N)c1cccc(-c2cc(COc3ccccc3CC(=O)O)cc(N3CCC4(CCOCC4)CC3)c2)c1F (centres unmarked) [Compound 055, 2-(2-((3′-(1-aminoethyl)-2′-fluoro-5-(3-oxa-9-azaspiro[5.5]undecan-9-yl)-[1,1′-biphenyl]-3-yl)methoxy)phenyl)acetic acid]",6.93,–
"NCc1cccc(-c2cc(COc3c(F)cccc3CC(=O)O)cc(N3CCC4(CC3)COC4)c2)c1 [Compound 028, 2-(2-((3′-(aminomethyl)-5-(2-oxa-7-azaspiro[3.5]nonan-7-yl)-[1,1′-biphenyl]-3-yl)methoxy)-3-fluorophenyl)acetic acid]",7.24,–
CC(N)c1cccc(-c2cc(COc3ccccc3CC(=O)O)cc(N3CC4(CCOC4)C3)c2)c1 (centres unmarked) [Compound 040],6.86,–
"NC(CF)c1cccc(-c2cc(COc3ccccc3CC(=O)O)cc(N3CCC4(CC3)COC4)c2)c1 (centres unmarked) [Compound 044, 2-(2-((3′-(1-amino-2-fluoroethyl)-5-(2-oxa-7-azaspiro[3.5]nonan-7-yl)-[1,1′-biphenyl]-3-yl)methoxy)phenyl)acetic acid]",6.88,–
"NCc1cccc(-c2cc(COc3cc(F)ccc3CC(=O)O)cc(N3CCC4(CC3)CC4)c2)c1 [Compound 009, 2-(2-((3′-(aminomethyl)-5-(6-azaspiro[2.5]octan-6-yl)-[1,1′-biphenyl]-3-yl)methoxy)-4-fluorophenyl)acetic acid]",6.66,–
CC(N)c1cccc(-c2cc(COc3ccccc3CC(=O)O)cc(N3CCC4(CCO4)CC3)c2)c1 (centres unmarked) [Compound 043],7.03,–
CC(N)c1cccc(-c2cc(COc3ccccc3CC(=O)O)cc(N3CCC4(CCOC4)CC3)c2)c1 (centres unmarked) [Compound 036],7.36,–
"NCc1cccc(-c2cc(COc3ccccc3CC(=O)O)c(F)c(N3CCC4(CC3)COC4)c2)c1 [Compound 026, 2-(2-((3′-(aminomethyl)-4-fluoro-5-(2-oxa-7-azaspiro[3.5]nonan-7-yl)-[1,1′-biphenyl]-3-yl)methoxy)phenyl)acetic acid]",7.80,–
CC(N)c1cccc(-c2cc(COc3ccccc3CC(=O)O)cc(N3CCC4(CCOCC4)CC3)c2)c1 (centres unmarked) [Compound 038],6.69,–

# From patent US20240391877A1, “COMPOUND AS INHIBITOR OF COMPLEMENT FACTOR D, AND PHARMACEUTICAL COMPOSITION AND USE THEREOF” (WUHAN CREATERNA SCIENCE AND TECHNOLOGY CO.,LTD., priority 2021, published 2024)
